Test results: PMC11390765 (Cancer Chemotherapy and Pharmacology, 2024)
Marks after values point to notes of the source that are not given here.

Assay: Plasma pharmacokinetics of capivasertib and its glucuronide metabolite
Type: in vivo, human
Conditions: for Ctrough cycle 1, day 13: 12 h post day 12 capivasertib evening dose; for Ctrough cycle 1, day 9: after 3 off-capivasertib-dosing days; for tmax: median (range)
[1] = geometric mean (gCV%), listed as Capivasertib

For `NC1(C(=O)N[C@@H](CCO)c2ccc(Cl)cc2)CCN(c2nc[nH]c3nccc2-3)CC1` [capivasertib], the AUCτ (geometric mean (gCV%), 12-h dosing interval, day 12 of cycle 1, capivasertib 400 mg BID) was 8499 ng·h/mL, the “Ctrough cycle 1, day 13” value (geometric mean (gCV%)) was 281.5 ng/mL and the “Ctrough cycle 1, day 13” value [1] was 281.5^f (53.3) ng/mL. For the same compound, the “Ctrough cycle 1, day 9” value (geometric mean (gCV%)) was 10.96 ng/mL, the “Ctrough cycle 1, day 9” value [1] was 10.96^e (137.0) ng/mL and the Cmax (geometric mean (gCV%), day 12 of cycle 1, 4th day on capivasertib 400 mg BID, with single oral midazolam 1 mg) was 1779 ng/mL. The t½λz (geometric mean (gCV%), day 12 of cycle 1, capivasertib 400 mg BID) was 3.76 h, the CL/F (geometric mean (gCV%), day 12 of cycle 1, capivasertib 400 mg BID oral) was 46.4 L/h and the tmax (day 12 of cycle 1, capivasertib 400 mg BID) was 1.5 h. For the same compound, the tmax (day 12 of cycle 1, capivasertib 400 mg BID, listed as Capivasertib) was 1.48^a (0.6–5.5) h.
